Assay [1] deals with acid output (gastric secretion). Briefly: Gastric Secretion (pylorus ligation, modified Shay). To be noted: i.d. or s.c., 4 hours after ligation; for response vs control in vivo at 40 mg/kg: at 40 mpK. The assay is classed as in vivo, male Charles River Sprague Dawley derived rats. Here is the method: The inhibitory activity of the compounds on acid output was tested using pylorus ligation in a modification of the procedure of Shay, H. et al., Gastroenterology 26, 906 (1954). Basically, male Charles River Sprague Dawley derived rats weighing 150-300 grams were deprived of food but not water for 18-24 hours prior to use. Water was withheld during the experiment, however. The rats were weighed, anesthetized with ether and the pylorus ligated according to the method of Shay et al., supra. Treatment or vehicle control was then administered intraduodenally (i.d.) or subcutaneously (s.c.). Rats were housed two/cage and sacrificed with CO2 four hours after ligation. The stomachs were removed, rinsed, and contents emptied into a graduated centrifuge tube. The tubes were centrifuged, the volume of gastric juice recorded, and any samples obviously contaminated by feces, food or blood were eliminated. A 1 ml aliquot of gastric juice was titrated with 0.1N NaOH to a pH of 7.0-7.4. The volume of gastric juice secreted, the acid concentration, and the product of the volume times the concentration, i.e., the total amount of acid secreted, were measured.

The test system of the next assay is parietal cells. Briefly: Isolated Parietal Cell Assay (14C-aminopyrine accumulation, histamine or dibutyryl cAMP stimulated). The assay is classed as cell-based, rabbit. The following applies: Oryctolagus cuniculus. Here is the method:
The isolated parietal cell assay was conducted using the procedures of Batzri, S. et al., Biochemica et Biophysica Acta 508, 328 (1978) and Soll, A. H. Am. J. Physiol. 238, G366 (1980). Basically, parietal cells were isolated from the fundic mucosa of rabbit stomachs by a four-stage collagenase digestion process. The supernatant fractions from the last two stages of this process contain the individual parietal cells. This cell suspension was centrifuged and reconstituted in a modified Hank's buffer to contain 1-2×10^6 cells/ml. […] This accumulation was stimulated by histamine and was blocked by H2 antagonists. The cells were incubated with 0.4-0.5×10^6 cpm ^14 C-AP, with various concentrations of histamine as a stimulant, 1×10^-5 M isobutylmethylxanthine, and the test compound added in a 20 μl volume of buffer or DMSO. The flasks were incubated in a shaking water bath at 37° C. for 20 minutes. Two aliquots were then taken from each flask and cell pellets were collected by centrifugation. The pellets were solubilized with Protosol (New England Nuclear) and radioactivity determined by liquid scintillation spectrometry. Data is presented as the IC50 vhist, the concentration of compound required to inhibit ^14 C-AP accumulation in the histamine stimulated parietal cell by 50%.
When dibutyryl cAMP was used to stimulate the cells instead of histamine, a similar inhibition of ^14 C-AP accumulation was measured and the data are presented as the IC50 vcAMP, the concentration required to inhibit ^14 C-AP accumulation in the cAMP stimulated parietal cell by 50%.

In assay [2] the target is T1, parietal cell H^+ K^+ ATPase (Oryctolagus cuniculus, UniProt P27112).
T1 construct: determined in fundic mucosa from New Zealand white rabbits which were homogenized; from tissue; host or cells: fundic mucosa of New Zealand white rabbits, homogenized; membrane protein
T1 sequence (P27112 2-1035 limits assumed): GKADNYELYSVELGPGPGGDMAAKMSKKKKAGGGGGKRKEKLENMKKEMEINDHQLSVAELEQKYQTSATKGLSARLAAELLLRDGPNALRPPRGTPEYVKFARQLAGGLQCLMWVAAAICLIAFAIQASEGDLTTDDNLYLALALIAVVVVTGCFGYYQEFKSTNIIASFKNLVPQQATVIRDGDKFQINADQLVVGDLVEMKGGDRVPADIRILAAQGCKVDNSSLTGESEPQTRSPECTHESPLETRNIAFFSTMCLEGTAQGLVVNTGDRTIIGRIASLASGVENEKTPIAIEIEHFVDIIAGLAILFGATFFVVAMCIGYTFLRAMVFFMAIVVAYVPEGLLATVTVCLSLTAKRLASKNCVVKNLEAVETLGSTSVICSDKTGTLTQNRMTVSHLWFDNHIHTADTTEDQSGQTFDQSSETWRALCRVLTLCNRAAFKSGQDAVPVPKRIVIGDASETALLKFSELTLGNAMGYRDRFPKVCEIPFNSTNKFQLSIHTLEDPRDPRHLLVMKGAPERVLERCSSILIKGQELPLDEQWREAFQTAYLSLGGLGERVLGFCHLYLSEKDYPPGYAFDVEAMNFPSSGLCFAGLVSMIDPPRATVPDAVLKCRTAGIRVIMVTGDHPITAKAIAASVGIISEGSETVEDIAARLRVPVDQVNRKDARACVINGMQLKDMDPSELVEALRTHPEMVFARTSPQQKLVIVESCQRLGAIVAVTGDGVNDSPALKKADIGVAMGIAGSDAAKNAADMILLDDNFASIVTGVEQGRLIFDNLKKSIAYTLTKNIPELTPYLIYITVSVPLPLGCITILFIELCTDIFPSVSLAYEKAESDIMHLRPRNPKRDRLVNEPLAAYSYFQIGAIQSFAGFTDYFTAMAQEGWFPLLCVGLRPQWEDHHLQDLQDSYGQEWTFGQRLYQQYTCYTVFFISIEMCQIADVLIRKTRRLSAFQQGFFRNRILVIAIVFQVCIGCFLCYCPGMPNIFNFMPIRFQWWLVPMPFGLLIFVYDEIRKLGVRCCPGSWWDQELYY
T1 sequence (P18597 whole entry partner): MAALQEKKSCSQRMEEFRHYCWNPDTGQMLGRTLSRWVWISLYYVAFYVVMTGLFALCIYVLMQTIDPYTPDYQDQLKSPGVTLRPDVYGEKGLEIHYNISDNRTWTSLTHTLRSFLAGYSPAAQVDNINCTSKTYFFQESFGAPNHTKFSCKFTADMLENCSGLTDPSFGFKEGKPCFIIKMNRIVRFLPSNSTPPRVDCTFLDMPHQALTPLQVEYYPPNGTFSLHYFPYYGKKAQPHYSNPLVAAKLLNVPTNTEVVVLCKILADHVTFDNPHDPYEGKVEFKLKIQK
Briefly: Inhibition of Parietal Cell H^+ K^+ ATPase. In kind it is biochemical, New Zealand white rabbits. To be noted: read-out: % Inhibition at Concentration; for inhibition at 100 µM: at 10^-4 M. Here is the method: The activity was measured in a 1 ml incubation volume containing 50 mM Tris pH 7.4, 2 mM MgCl2, 2 mM Na2 ATP, with or without 20 mM KCl and vehicle control (dimethylsulfoxide) or test compound added in a 0.02 ml volume. Typically, 20-50 μg membrane protein was added and the tubes were preincubated with test compound for 10 minutes at 37° C. Substrate, Na2 ATP, was then added and the tubes were incubated for another 15 minutes at 37° C. The reaction was stopped by the addition of 1 ml 14% trichloroacetic acid and the samples were centrifuged at 2,000 ×g for 10 minutes. The amount of inorganic phosphate present in an aliquot of supernatant was determined. H^+ K^+ ATPase activity was determined after correcting for the basal (Mg^++ only) enzyme activity present in the membrane preparation.

Where [3] appears, read: Rattus norvegicus, read-out: % Acid Secreted at mpK.
[4] abbreviates: 20 min, histamine stimulated, 37° C., 20 minutes, read-out: IC50 vhist (inhibition of 14C-AP accumulation in the histamine stimulated parietal cell).
[5] abbreviates: dibutyryl cAMP stimulated, read-out: IC50 vcAMP (inhibition of 14C-AP accumulation in the cAMP stimulated parietal cell).

Structures are written as SMILES. Where two headings read alike, the source gives them in different places.

Usually IC50 stands for the concentration that inhibits the measured activity by half. Regarding `CCCCN(CCCC)CCCOc1ccc(-c2csc(-c3ccccc3)n2)cc1` [Example 1, 4-(4-Dibutylaminopropoxyphenyl)-2-phenylthiazole], the response vs control in vivo at 17 mg/kg in assay [1] (Rattus norvegicus, at 17.0 mpK, read-out: % Acid Secreted at mpK) is 50%. Further, in assay [1] (setting [3]), the response vs control in vivo at 40 mg/kg came to 97%. Further, the “% Acid Secreted at mpK” value in assay [1] (at 20 mpK) stood at 75%. Also, the IC50 was found to be 450 nM with parietal cells (setting [4]) and 420 nM in the assay with parietal cells (setting [5]). For the same compound, the inhibition at 100 µM in assay [2] came out at 47%.

As for `CCCCN(CCCC)CCCOc1ccc(-c2csc(C)n2)cc1` [Example 2, 4-(4-Dibutylaminopropoxyphenyl)-2-methylthiazole], the “% Acid Secreted at mpK” value in assay [1] (at 20 mpK) came to 8%. In addition, the IC50 with parietal cells (setting [4]) came out at 1500 nM; with parietal cells (setting [5]), 8400 nM. The inhibition at 100 µM in assay [2] is 22%.

`CCCCN(CCCC)CCCOc1ccc(-c2nc(-c3ccccc3)sc2C)cc1` [Example 3, 4-(4-Dibutylaminopropoxyphenyl)-5-methyl-2-phenylthiazole]: the “% Acid Secreted at mpK” value in assay [1] (at 20 mpK) was found to be 36%. The 50% inhibitory concentration (IC50) with parietal cells (setting [4]) is 270 nM; with parietal cells (setting [5]) it was 230 nM. Besides, the inhibition at 100 µM in assay [2] stood at 65%.

Turning to `CCN(CC)CCCOc1ccc(-c2csc(-c3ccccc3)n2)cc1` [Example 4, 4-(4-Diethylaminopropoxyphenyl)-2-phenylthiazole], the response vs control in vivo at 40 mg/kg in assay [1] (setting [3]) was 82%. The IC50 in the assay on parietal cells (setting [4]) amounted to 120 nM; in the assay on parietal cells (setting [5]), 90 nM. In addition, in assay [2] (at 47 μM), the inhibition at 47 µM came out at 50%.

As for `CCCN(CCC)CCCOc1ccc(-c2csc(-c3ccccc3)n2)cc1` [Example 5, 4-(4-Dipropylaminopropoxyphenyl)-2-phenylthiazole], the response vs control in vivo at 40 mg/kg in assay [1] (setting [3]) was 94%. Further, the results for the IC50 with parietal cells (setting [4]) and with parietal cells (setting [5]) were 230 nM and 180 nM, respectively. Also, the inhibition at 100 µM in assay [2] was determined as 60%.

Take `CN1CCN(CCCOc2ccc(-c3csc(-c4ccccc4)n3)cc2)CC1` [Example 6, 4-[4-(4-Methylpiperazol-1-yl)propoxyphenyl]-2-phenylthiazole]: the response vs control in vivo at 40 mg/kg in assay [1] (setting [3]) was 18%. Also, the half-maximal inhibitory concentration (IC50) with parietal cells (setting [4]) was 180 nM; in the assay on parietal cells (setting [5]), 120 nM. Moreover, the inhibition at 44 µM in assay [2] (at 44 μM) is 50%.

Regarding `COc1ccccc1N1CCN(CCCOc2ccc(-c3csc(-c4ccccc4)n3)cc2)CC1` [Example 7, 4-[4-[4-(2-Methoxyphenyl)piperazol-1-yl]propoxyphenyl]-2-phenylthiazole], the figures for the IC50 in the assay with parietal cells (setting [4]) and in the assay on parietal cells (setting [5]) were 480 nM and 340 nM, respectively. The inhibition at 100 µM in assay [2] was 28%.

With `c1ccc(-c2nc(-c3ccc(OCCCN4CCCCC4)cc3)cs2)cc1` [Example 8, 4-[4-(3-Piperidino)propoxyphenyl]-2-phenylthiazole], the response vs control in vivo at 40 mg/kg in assay [1] (setting [3]) worked out at 92%. Also, the “% Acid Secreted at mpK” value is 25% in assay [1] (at 10 mpK) and 46% in assay [1] (at 20 mpK). The half-maximal inhibitory concentration (IC50) in the assay with parietal cells (setting [4]) stood at 110 nM; with parietal cells (setting [5]), 50 nM. For the same compound, the inhibition at 34 µM in assay [2] (at 34 μM) was 50%.

With `c1ccc(-c2nc(-c3ccc(OCCCN4CCCC4)cc3)cs2)cc1` [Example 9, 4-[4-(3-Pyrrolidino)propoxyphenyl]-2-phenylthiazole], in assay [1] (at 20 mpK), the “% Acid Secreted at mpK” value was found to be 36%. In addition, the IC50 with parietal cells (setting [4]) is 390 nM; in the assay on parietal cells (setting [5]), less than 10000 nM. In addition, the inhibition at 32 µM in assay [2] (at 32 μM) stood at 50%.

As for `c1ccc(-c2nc(-c3ccc(OCCCn4ccnc4)cc3)cs2)cc1` [Example 10, 4-[4-(1H-Imidazol-1-yl)propoxyphenyl]-2-phenylthiazole], the response vs control in vivo at 5 mg/kg in assay [1] (Rattus norvegicus, at 5 mpK, read-out: % Acid Secreted at mpK) is 33%. Besides, the response vs control in vivo at 5.7 mg/kg in assay [1] (Rattus norvegicus, at 5.7 mpK, read-out: % Acid Secreted at mpK) amounted to 50%. Besides, the “% Acid Secreted at mpK” value came out at 78% in assay [1] (at 10 mpK) and 91% in assay [1] (at 20 mpK). For the same compound, the values for the IC50 in the assay on parietal cells (setting [4]) and in the assay on parietal cells (setting [5]) were 80 nM and 20 nM, respectively. Also, in assay [2] (at 18 μM), the inhibition at 18 µM amounted to 50%.

With `CN(CCCOc1ccc(-c2csc(-c3ccccc3)n2)cc1)Cc1ccccc1` [Example 11, 4-(4-Benzylmethylaminopropoxyphenyl)-2-phenylthiazole], in assay [1] (at 20 mpK), the “% Acid Secreted at mpK” value turned out to be 48%. Moreover, the IC50 in the assay with parietal cells (setting [4]) came out at 370 nM; in the assay on parietal cells (setting [5]), 210 nM. Also, the inhibition at 100 µM in assay [2] is 39%.

For `CCCCN(CCCC)CCOc1ccc(-c2csc(-c3ccccc3)n2)cc1` [Example 12, 4-(4-Dibutylaminoethoxyphenyl)-2-phenylthiazole], the “% Acid Secreted at mpK” value in assay [1] (at 20 mpK) is 41%. The half-maximal inhibitory concentration (IC50) is 310 nM in the assay on parietal cells (setting [4]) and 350 nM in the assay on parietal cells (setting [5]). Also, in assay [2], the inhibition at 100 µM came out at 44%.

Regarding `CCCCN(CCCC)CCCCOc1ccc(-c2csc(-c3ccccc3)n2)cc1` [Example 13], the response vs control in vivo at 40 mg/kg in assay [1] (setting [3]) was 90%. Further, in assay [1] (at 20 mpK), the “% Acid Secreted at mpK” value came to 56%. Besides, the IC50 came to 130 nM with parietal cells (setting [4]) and 120 nM in the assay with parietal cells (setting [5]). Besides, the inhibition at 100 µM in assay [2] was 64%.

As to `c1ccc(-c2nc(-c3ccc(OCCCCn4ccnc4)cc3)cs2)cc1` [Example 14], the response vs control in vivo at 40 mg/kg in assay [1] (setting [3]) is 31%. Besides, the 50% inhibitory concentration (IC50) came to 820 nM with parietal cells (setting [4]) and 310 nM with parietal cells (setting [5]). The inhibition at 100 µM in assay [2] came out at 0%.

Turning to `CCCCN(CCCC)CCCCCOc1ccc(-c2csc(-c3ccccc3)n2)cc1` [Example 15], the “% Acid Secreted at mpK” value in assay [1] (at 20 mpK) was determined as 54%. For the same compound, the figures for the half-inhibitory concentration (IC50) with parietal cells (setting [4]) and in the assay on parietal cells (setting [5]) were 490 nM and 860 nM, respectively. The inhibition at 100 µM in assay [2] was found to be 58%.

As for `CCCCN(CCCC)CCCOc1ccc(-c2csc(-c3ccc(Cl)cc3)n2)cc1` [Example 16], the “% Acid Secreted at mpK” value in assay [1] (at 20 mpK) is 40%. In addition, the 50% inhibitory concentration (IC50) in the assay with parietal cells (setting [4]) came out at 2100 nM; with parietal cells (setting [5]) it was 1800 nM. For the same compound, the inhibition at 100 µM in assay [2] is 55%.

As to `CCCCN(CCCC)CCCOc1ccc(-c2csc(-c3ccc(OC)cc3)n2)cc1` [Example 17, 4-(4-Dibutylaminopropoxyphenyl)-2-(4-methoxyphenyl)thiazole], the “% Acid Secreted at mpK” value in assay [1] (at 20 mpK) was determined as 4%. The values for the concentration for half-maximal inhibition (IC50) in the assay on parietal cells (setting [4]) and in the assay with parietal cells (setting [5]) were 480 nM and 230 nM, respectively. The inhibition at 100 µM in assay [2] is 33%.

Take `CCCCN(CCCC)CCCOc1ccc(-c2csc(-c3cc(OC)cc(OC)c3)n2)cc1` [Example 18, 4-(4-Dibutylaminopropoxyphenyl)-2-(3,5-dimethoxyphenyl)thiazole]: the “% Acid Secreted at mpK” value in assay [1] (at 20 mpK) is reported as 17%. Moreover, the IC50 in the assay on parietal cells (setting [4]) came to 260 nM; in the assay on parietal cells (setting [5]), 540 nM. In assay [2], the inhibition at 100 µM is 30%.

In the case of `CCCCN(CCCC)CCCOc1ccc(-c2csc(-c3ccc(C)cc3)n2)cc1` [Example 19, 4-(4-Dibutylaminopropoxyphenyl)-2-(4-methylphenyl)thiazole], in assay [1] (at 20 mpK), the “% Acid Secreted at mpK” value is given as 41%. In addition, the values for the IC50 with parietal cells (setting [4]) and with parietal cells (setting [5]) were 1500 nM and 3000 nM, respectively. Also, the inhibition at 24 µM in assay [2] (at 24 μM) turned out to be 50%.

The values above are taken from patent US4791200A, “2-substituted-4-aryl-substituted thiazoles” (Ortho Pharmaceutical Corporation, priority 1987, dated 1988).
